Test results reported in publication PMC5453931, “Cathelicidin-trypsin inhibitor loop conjugate represents a promising antibiotic candidate with protease stability” (Scientific Reports, 2017).
Converted amounts (≈) assume the structure as drawn. Where a SMILES comes first, the peptide text is derived from it. Bridges are numbered along the chain shown (N, C = ends).

Columns and labels:
E. coli 08040726 [1] = assay type: cell-based; conditions: 08040726, 18 h
Experimental: (§1) A two-fold broth microdilution method described in our previous paper was used to determine the antimicrobial activities of parental and hybrid peptides. More than 30 strains including Gram-negative bacteria, Gram-positive bacteria and fungi were used in the current assay, in which the standard strains were stored in our lab and the clinical strains were collected from local hospitals. Briefly, bacteria were incubated in Mueller-Hinton broth (MH broth) at 37 °C to exponential phase and diluted to 10^6 CFU/mL. A serial dilution of peptide sample were prepared in 96-well microtiter plates (50 μL) and mixed with equal volume of microbial inoculums (50 μL). The plate was slowly shaken in the microbial incubator, and measured at A595 after incubation at 37 °C for 18 h. The minimal concentrations at which no microbial growth occurred were recorded as MIC (minimal inhibitory concentration) values. The traditional antibiotic ampicillin was used as positive control. The results are shown in an average of the MICs obtained from three independent experiments.

E. coli 08040726 [2] = test: MIC, two-fold broth microdilution (second listing of the strain number); assay type: cell-based; conditions: Gram-negative, MH broth, 37 °C, 18 h, mean of three independent experiments in duplicates
Experimental: as §1

Aeromonas sobria = test: microbe, parasite or virus in culture; assay type: cell-based; conditions: Aquatic pathogenic bacteria; two-fold broth microdilution, 37 °C, 18 h; mean of three independent experiments in duplicates
Experimental: as §1

Aeromonas veronii = test: microbe, parasite or virus in culture; assay type: cell-based; conditions: Aquatic pathogenic bacteria; two-fold broth microdilution, 37 °C, 18 h; mean of three independent experiments in duplicates
Experimental: as §1

[3] = system: Bacillus subtilis 08042313; test: microbe, parasite or virus in culture; assay type: cell-based; conditions: 08042313, 18 h
Experimental: as §1

[4] = system: Candida albicans 08030102; test: microbe, parasite or virus in culture; assay type: cell-based; conditions: 08030102, 18 h
Experimental: as §1

Candida glabrata 08A802 = test: microbe, parasite or virus in culture; assay type: cell-based; conditions: 08A802, 18 h
Experimental: as §1

E. Coli 08032823 = test: microbe, parasite or virus in culture; assay type: cell-based; conditions: 08032823, 18 h
Experimental: as §1

Edwardsiella tarda = test: microbe, parasite or virus in culture; assay type: cell-based; conditions: 18 h
Experimental: as §1

[5] = system: Enterococcus faecium 08052315; test: microbe, parasite or virus in culture; assay type: cell-based; conditions: 08052315, 18 h
Experimental: as §1

[6] = system: Escherichia coli ATCC25922; test: microbe, parasite or virus in culture; assay type: cell-based; conditions: ATCC25922, 18 h
Experimental: as §1

K. Pneumoniae 08031012 = test: microbe, parasite or virus in culture; assay type: cell-based; conditions: Gram-negative; two-fold broth microdilution, MH broth, 37 °C, 18 h; mean of three independent experiments in duplicates
Experimental: as §1

K. Pneumoniae 08040202 = test: microbe, parasite or virus in culture; assay type: cell-based; conditions: Gram-negative; two-fold broth microdilution, MH broth, 37 °C, 18 h; mean of three independent experiments in duplicates
Experimental: as §1

[7] = system: Nocardia asteroides 08052412; test: microbe, parasite or virus in culture; assay type: cell-based; conditions: 18 h
Experimental: as §1

P. Aeruginosa 08021015 = test: microbe, parasite or virus in culture; assay type: cell-based; conditions: 08021015, 18 h
Experimental: as §1

Proteus mirabilis 1376 = test: microbe, parasite or virus in culture; assay type: cell-based; conditions: 1376, 18 h
Experimental: as §1

S. Aureus 08032615 = test: microbe, parasite or virus in culture; assay type: cell-based; conditions: 08032615, 18 h
Experimental: as §1

S. Aureus 08032706 = test: microbe, parasite or virus in culture; assay type: cell-based; conditions: Gram-positive; two-fold broth microdilution, MH broth, 37 °C, 18 h; mean of three independent experiments in duplicates
Experimental: as §1

S. Aureus 08032810 = test: microbe, parasite or virus in culture; assay type: cell-based; conditions: Gram-positive; two-fold broth microdilution, MH broth, 37 °C, 18 h; mean of three independent experiments in duplicates
Experimental: as §1

S. Maltophilia 090223 = test: microbe, parasite or virus in culture; assay type: cell-based; conditions: 090223, 18 h
Experimental: as §1

Vibrio brasiiensis = test: microbe, parasite or virus in culture; assay type: cell-based; conditions: 18 h
Experimental: as §1

Vibrio cholerae = test: microbe, parasite or virus in culture; assay type: cell-based; conditions: 18 h
Experimental: as §1

Vibrio harveyi = test: microbe, parasite or virus in culture; assay type: cell-based; conditions: 18 h
Experimental: as §1

E. Coli 08032813 = test: MIC, two-fold broth microdilution; assay type: cell-based; conditions: Gram-negative; two-fold broth microdilution, MH broth, 37 °C, 18 h; mean of three independent experiments in duplicates
Outline: (§2)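 Two-fold broth microdilution in Mueller-Hinton broth, exponential-phase inoculum at 10^6 CFU/mL mixed 1:1 with peptide dilutions. After 18 h at 37 °C with shaking, A595 read; MIC is the lowest concentration with no growth, averaged over three independent experiments.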

[8] = system: Staphylococcus epidermidis; test: MIC, two-fold broth microdilution; assay type: cell-based; conditions: Gram-positive; two-fold broth microdilution, MH broth, 37 °C, 18 h; mean of three independent experiments in duplicates
Outline: as §2

Vibrio Parahaemolyticus = test: MIC, two-fold broth microdilution; assay type: cell-based; conditions: Aquatic pathogenic bacteria; two-fold broth microdilution, 37 °C, 18 h; mean of three independent experiments in duplicates
Outline: as §2

08030209 = test: microbe, parasite or virus in culture; assay type: cell-based, Arcyria cinerea; conditions: Fungi; two-fold broth microdilution, 37 °C, 18 h; mean of three independent experiments in duplicates
Experimental: as §1

trypsin = test: Trypsin inhibition assay (NBLAN hydrolysis, Dixon method); assay type: biochemical; conditions: 50 mM Tris–HCl pH 7.8, trypsin 0.1 mg/mL, 5 min pre-incubation at 37 °C, substrate NBLAN 48, 96, 192 μg/mL, 405 nm
Experimental: The inhibition effect on the hydrolysis of synthetic chromogenic substrate by trypsin was assayed in 50 mM Tris–HCl, pH 7.8 buffer at room temperature. The trypsin of final concentration of 0.1 mg/mL and different amounts of the hybrid peptide (final concentrations ranging from 0 to 0.16 μg/mL) were pre-incubated for 5 min at 37 °C. N-α-Benzoyl-DL-arginine p-nitroanilide hydrochloride (NBLAN) was used as a substrate for trypsin. The reaction was initiated by the addition of NBLAN with a final concentration of 48, 96 and 192 μg/mL, respectively. The formation of yellow product, p-nitroaniline was monitored continuously at 405 nm[61]. The inhibition constant Ki of the hybrid peptides were determined according to the method of Dixon (1953)[62].

SMILES: CC[C@H](C)[C@@H]1NC(=O)[C@H](CO)NC(=O)[C@H](CCCCN)NC(=O)[C@H]([C@@H](C)O)NC(=O)[C@H](Cc2c[nH]c3ccccc23)NC(=O)[C@@H](NC(=O)[C@H](Cc2ccccc2)NC(=O)[C@H](CCCCN)NC(=O)[C@H](CCCCN)NC(=O)[C@@H](NC(=O)[C@H](C)NC(=O)[C@H](CCCNC(=N)N)NC(=O)[C@H](CCCNC(=N)N)NC(=O)[C@@H](NC(=O)[C@H](CO)NC(=O)[C@H](CCCCN)NC(=O)[C@H](CC(C)C)NC(=O)[C@H](CC(C)C)NC(=O)[C@H](CCCNC(=N)N)NC(=O)[C@H](CCCCN)NC(=O)[C@H](Cc2ccccc2)NC(=O)[C@H](Cc2ccccc2)NC(=O)[C@@H](N)CCCCN)C(C)C)C(C)C)CSSC[C@@H](C(=O)O)NC(=O)[C@@H]2CCCN2C(=O)[C@H](CCCCN)NC(=O)[C@@H]2CCCN2C(=O)[C@@H]2CCCN2C1=O [H3TI] (H-KFFKRLLKSVRRAVKKFCWTKSIPPKPC-OH; disulfide 18-28)
- MIC E. coli 08040726 (E. coli 08040726 [1]): 9.38 µg/mL (≈ 2.77 µM)
- MIC E. Coli 08040726 (second line with this strain number) (E. coli 08040726 [2]): — (no detectable activity in MIC assay in dose of 200 µg/mL or in trypsin inhibition assay at concentration of 160 μg/mL)
- MIC Aeromonas sobria (Aeromonas sobria): — (no detectable activity in MIC assay in dose of 200 µg/mL or in trypsin inhibition assay at concentration of 160 μg/mL)
- MIC Aeromonas veronii (Aeromonas veronii): — (no detectable activity in MIC assay in dose of 200 µg/mL or in trypsin inhibition assay at concentration of 160 μg/mL)
- MIC Bacillus subtilis 08042313 [3]: 9.38 µg/mL (≈ 2.77 µM)
- MIC Candida albicans 08030102 [4]: 4.69 µg/mL (≈ 1.38 µM)
- MIC Candida glabrata 08A802 (Candida glabrata 08A802): 4.69 µg/mL (≈ 1.38 µM)
- MIC E. Coli 08032823 (E. Coli 08032823): 37.5 µg/mL (≈ 11.1 µM)
- MIC Edwardsiella tarda (Edwardsiella tarda): 37.5 µg/mL (≈ 11.1 µM)
- MIC Enterococcus faecium 08052315 [5]: 9.38 µg/mL (≈ 2.77 µM)
- MIC Escherichia coli ATCC25922 [6]: 37.5 µg/mL (≈ 11.1 µM)
- MIC K. Pneumoniae 08031012 (K. Pneumoniae 08031012): — (no detectable activity in MIC assay in dose of 200 µg/mL or in trypsin inhibition assay at concentration of 160 μg/mL)
- MIC K. Pneumoniae 08040202 (K. Pneumoniae 08040202): — (no detectable activity in MIC assay in dose of 200 µg/mL or in trypsin inhibition assay at concentration of 160 μg/mL)
- MIC Nocardia asteroides 08052412 [7]: 18.75 µg/mL (≈ 5.53 µM)
- MIC P. Aeruginosa 08021015 (P. Aeruginosa 08021015): 37.5 µg/mL (≈ 11.1 µM)
- MIC Proteus mirabilis 1376 (Proteus mirabilis 1376): 37.5 µg/mL (≈ 11.1 µM)
- MIC S. Aureus 08032615 (S. Aureus 08032615): 37.5 µg/mL (≈ 11.1 µM)
- MIC S. Aureus 08032706 (S. Aureus 08032706): — (no detectable activity in MIC assay in dose of 200 µg/mL or in trypsin inhibition assay at concentration of 160 μg/mL)
- MIC S. Aureus 08032810 (S. Aureus 08032810): — (no detectable activity in MIC assay in dose of 200 µg/mL or in trypsin inhibition assay at concentration of 160 μg/mL)
- MIC S. Maltophilia 090223 (S. Maltophilia 090223): 18.75 µg/mL (≈ 5.53 µM)
- MIC Vibrio brasiiensis (Vibrio brasiiensis): 18.75 µg/mL (≈ 5.53 µM)
- MIC Vibrio cholerae (Vibrio cholerae): 75 µg/mL (≈ 22.1 µM)
- MIC Vibrio harveyi (Vibrio harveyi): 37.5 µg/mL (≈ 11.1 µM)
- MIC E. Coli 08032813 (E. Coli 08032813): — (no detectable activity in MIC assay in dose of 200 µg/mL or in trypsin inhibition assay at concentration of 160 μg/mL)
- MIC Staphylococcus epidermidis [8]: — (no detectable activity in MIC assay in dose of 200 µg/mL or in trypsin inhibition assay at concentration of 160 μg/mL)
- MIC Vibrio Parahaemolyticus (Vibrio Parahaemolyticus): 4.69 µg/mL (≈ 1.38 µM)
- MIC Arcyria cinerea 08030209 08030209: — (no detectable activity in MIC assay in dose of 200 µg/mL or in trypsin inhibition assay at concentration of 160 μg/mL)
- Ki (trypsin): 5.5 µM
